System: isolated guinea pig heart
Test: Effect on coronary blood flow of the isolated guinea pig heart (perfusion with KH solution)
Method: 1. Effect on coronary blood flow of the isolated guinea pig heart. • (1) The perfusion circuit was maintained at 37±1° C. and the perfusate in the condensing tube was thermostatic. The upper end of the condensing tube was connected with reservoir and the lower with aortic cannula via rubber tube. The perfusate level in reservoir A was constant by controlling the height of liquid below the air inlet in reservoir B. The perfusate level was about 50 cm above the aortic root. Constant oxygen was gassed into reservoir A to make the KH solution saturated with oxygen. When full of the oxygenated LH solution, the perfusion tube was clamped. • (2) On […], weighing 300 g, was stunned and exsanguinated via carotid. The chest and pericardium were opened, and then the heart was suspended in the pericardial cradle. The heart was exercised and immediately put into the cold KH solution (4° C.). The remaining blood was pressed out gently. After aortic cannulation at the top of the ascending aorta, the clamp was opened and the coronary venous effluent was present (route: coronary artery→myocardium→right atrium→vena cava and pulmonary artery). The pressure transducer was connected with the apex of heart to record the graphs and count the heart beat. The coronary venous effluent dripped into the measuring cup via a funnel. • (3) Coronary Blood Flow Measurement: The heart was allowed to recover for 10 minutes to stabilize coronary blood flow, heart rate, and heart beat amplitude. The per-minute flow volume was measured consecutively for 3 minutes. If the values were similar, the average was calculated for the normal coronary blood flow. […] The test sample and isoprenaline was injected into the aortic cannula respectively. The per-minute coronary blood flow, heart rate and heart beat duration were measured during 1˜10 min after administration, the maximum and minimum were picked out to caculate the extreme difference. Note: the second administration should not be given until the coronary blood flow returned to normal. Five replicate experiments were conducted to ensure the reproductivity.

[1] = isolated heart, 0.25 μg injected into aortic cannula, X ± SD

CC(C)NCC(O)c1ccc(O)c(O)c1 (stereo not drawn) [Isoprenaline]
coronary blood flow (result in words) (isolated guinea pig heart): increased | heart rate (result in words) (isolated guinea pig heart): increased | myocardial contraction (result in words) (isolated guinea pig heart): increased | Coronary Blood Flow, After administration [1]: 20 ± 4 mL/min | Heart Rate, After administration [1]: 198 ± 21 time/min | Heart beat duration, After administration [1]: 62 ± 10 min

Reference: US20050142229A1, “Pharmaceutical activity and manufacturing method of the four-plant-derived coronary blood flow enhancing agent” (priority 2003, published 2005)
